Results on 5 compounds are retold here after US8063225B2, “Tricyclic compound derivatives useful in the treatment of neoplastic diseases, inflammatory disorders and immunomodulatory disorders” (Chembridge Corporation, priority 2006, dated 2011).

Holding throughout (format): cell-based
Assay [1] deals with My5. Description: Cell proliferation inhibition, MTT assay, My5. The settings on record: Homo sapiens, Multiple myeloma cell, 72 h, My5 multiple myeloma cells, 3-day proliferation. The source says: (§1) IGF1R and other tyrosine kinase inhibitors can inhibit the proliferation of certain cancer cell lines indicating their possible therapeutic utility for treating the corresponding cancer types. Cancer cell lines of interest and control normal lines, including CHO, HEK293, BA/F3, COLO205, PC3, DU145, MCF7, Panc1, ACHN, Hep G2, H460, K562, TT, U87-MG, CAOV-3, SK-MEL5, Karpas 299 and human multiple myeloma cell lines H929, MM1s, MM1r, UTMC2, CPM2, KMS11, My5, KMS12PE, My7, JJN3, KMS18, U266, SKMM2, RPMI-8226 are plated in white, clear-bottomed 384-well cell culture plates at 2500-5000 cells per well and supplied with dilutions of tested compounds After a desired period of time (typically 3 days), the number of viable cells is quantitated by using Cell Titer-Glo Luminescent Cell Viability Assay (Promega), a cell proliferation assay system based on detection of total amount of ATP present as a measure of cell metabolic activity. The plated cells are mixed with the Cell Titer-Glo developing reagent and counted in a luminescence multiwell plate reader according to the standard manufacturer's protocol to generate IC50 curves for cell proliferation inhibition. Results are typically reported as percent of growth (% viability =(OD72h(compound)−ODday0))/(OD72h(no compound)−ODday0). Alternatively, viable cells are quantitated by using the conventional colorimetric MTT assay. The MTT assay is based on the cleavage of the yellow tetrazolium salt MTT to purple formazan crystal by metabolic active cells. The formazan is then solubilized, and the concentration determined by optical density at 570 nm. The cells plated and incubated with a compound as described above are supplemented with the solution of MTT and incubated for 2-3 hours. The growth medium is removed and dimethyl sulfoxide is added into each well to dissolve the formazan. The absorbance is measured on an ELISA plate reader with a test wavelength of 570 nm and a background subtraction wavelength of 630 nm to obtain sample signal (OD570-OD630). […] The results are reported in terms of IC50 value for a particular compound and a cell line in the standard 3-day proliferation assay using Cell Titer-Glo. […] The results are reported in terms of IC50 value for a particular compound and a cell line in the standard 3-day proliferation assay using MTT assay.
(Tetrazolium assays rely on reduction of a dye to a coloured formazan, in cell work by metabolically active cells.)

Assay [2] concerns KMS12PE. Description: Cell proliferation inhibition, MTT assay, KMS12PE. The settings on record: Homo sapiens, 72 h, KMS-12PE multiple myeloma cells, 3-day proliferation.
Text: as §1

Assay [3] concerns My7. Description: Cell proliferation inhibition, MTT assay, My7. The settings on record: Homo sapiens, Multiple myeloma cell, 72 h, My7 multiple myeloma cells, 3-day proliferation.
Text: as §1

Assay [4] concerns JJN3. Description: Cell proliferation inhibition, MTT assay, JJN3. The conditions noted are these: Homo sapiens, JJN-3, 72 h, JJN3 multiple myeloma cells, 3-day proliferation.
Text: as §1

The subject of assay [5] is KMS18. Description: Cell proliferation inhibition, MTT assay, KMS18. The conditions noted are these: Homo sapiens, 72 h, KMS18 multiple myeloma cells, 3-day proliferation.
Text: as §1

The test system of assay [6] is U266. Description: Cell proliferation inhibition, MTT assay, U266. The settings on record: Homo sapiens, U-266, 72 h, U266 multiple myeloma cells, 3-day proliferation.
Text: as §1

Assay [7] deals with SKMM2. Description: Cell proliferation inhibition, MTT assay, SKMM2. The settings on record: Homo sapiens, SK-MM-2, 72 h, SKMM2 multiple myeloma cells, 3-day proliferation.
Text: as §1

The test system of assay [8] is RPMI-8226. Description: Cell proliferation inhibition, MTT assay, RPMI-8226. The conditions noted are these: Homo sapiens, 72 h, RPMI-8226 multiple myeloma cells, 3-day proliferation.
Text: as §1

On to `Cc1ccc(OCC(=O)CNc2cc[nH]c(=O)c2-c2nc3cc4c(cc3[nH]2)CN(C2CCN(C)CC2)C4=O)c(C)c1` [drawing 845], for which the half-inhibitory concentration (IC50) in assay [1], in assay [2], in assay [3], in assay [4], in assay [5] and in assay [6] was 1 to 5 µM each time. Also, the IC50 in assay [7] and in assay [8] was 5 to 20 µM throughout.
`Cc1ccc(OCC(=O)CNc2cc[nH]c(=O)c2-c2nc3cc4c(cc3[nH]2)CN(CCCN2CCCC2)C4=O)c(C)c1` [drawing 847]: the IC50 in assay [1], in assay [2], in assay [3], in assay [4], in assay [5] and in assay [6] was 5 to 20 µM in each case. The half-inhibitory concentration (IC50) in assay [7] and in assay [8] was 5 to 20 µM each time.
As for `COc1ccc(OCC(=O)CNc2cc[nH]c(=O)c2-c2nc3cc4c(cc3[nH]2)C(=O)N(C2CCN(C)CC2)C4)c(Cl)c1` [drawing 850], the IC50 was 5 to 20 µM in assay [1]; 1 to 5 µM in assay [2]; 5 to 20 µM in assay [3]; 1 to 5 µM in assay [4]; 1 to 5 µM in assay [5]; 1 to 5 µM in assay [6]. Also, the IC50 in assay [7] and in assay [8] was 5 to 20 µM in each case.
As to `CCc1cc2c(cc1OCC(=O)CNc1cc[nH]c(=O)c1-c1nc3cc4c(cc3[nH]1)C(=O)N(C1CCN(C)CC1)C4)OCO2` [drawing 849], the IC50 in assay [1] is 5 to 20 µM; in assay [2] it was 5 to 20 µM; in assay [3], 1 to 5 µM; in assay [4], 1 to 5 µM; in assay [5], 1 to 5 µM; in assay [6], 1 to 5 µM. The concentration for half-maximal inhibition (IC50) in assay [7] and in assay [8] was 5 to 20 µM in each case.
Regarding `CN1CCC(N2Cc3cc4[nH]c(-c5c(NCC(=O)COc6ccccc6Br)cc[nH]c5=O)nc4cc3C2=O)CC1` [drawing 848], the IC50 in assay [1] lay within 1 to 5 µM; in assay [2] it was 1 to 5 µM; in assay [3] it was 1 to 5 µM; in assay [4], 1 to 5 µM; in assay [5] it was 0.5 to 1 µM; in assay [6], 1 to 5 µM. The values for the half-inhibitory concentration (IC50) in assay [7] and in assay [8] were 1 to 5 µM and 5 to 20 µM, respectively.

One may read the IC50 as the concentration at which inhibition is half-maximal. A higher IC50 goes with weaker potency.
